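Five concentrations, 48 hours, 96-well plates. The concentration for 50% growth inhibition is given as GI50.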 Activity calls are given as the source filed them. No stated cut-off is given here; in the data, active = GI50 up to about 1.1 µM and inactive = higher.

This note sets out measurements from ChEMBL document CHEMBL1201862, “PubChem BioAssay data set” (2004).

Test systems include MDA-MB-435; HOP-62; A498; SR; BT-549; KM12; RXF 393; NCI-H23; Malme-3M; SK-OV-3; NCI-H460; A549; ACHN; HCT-15; OVCAR-5; LOX IMVI; UACC-62; SNB-75; UACC-257; TK-10.
Experiment in all cases: NCI-60 cell line screen, 48 h

For `OCC(O)C(O)C(O)C1SC(c2ccccc2)=NN1c1ccccc1` (stereo not given), the GI50 with MDA-MB-435 is 97.9 µM (inactive); in the assay with HOP-62, 38.9 µM (inactive); in the assay on A498, > 88.5 µM (inactive); in the assay on SR it was > 81.3 µM (inactive); with BT-549 it was > 100 µM (inactive); in the assay with KM12, > 100 µM (inactive). Further, the GI50 is 20.4 µM (inactive) in the assay with RXF 393; 45.7 µM (inactive) in the assay with NCI-H23; > 82 µM (inactive) in the assay with Malme-3M; 36.9 µM (inactive) in the assay with SK-OV-3; > 78 µM (inactive) with NCI-H460; 78.3 µM (inactive) in the assay on A549. Besides, the GI50 in the assay on ACHN was 64.7 µM (inactive); in the assay with HCT-15, greater than 100 µM; with OVCAR-5, > 84.9 µM (inactive); in the assay with LOX IMVI it was 50.7 µM (inactive); in the assay with UACC-62, 47 µM (inactive); in the assay with SNB-75, 16 µM (inactive). In addition, the GI50 in the assay on UACC-257 is > 89.1 µM (inactive); with TK-10, 61.9 µM (inactive).
Take `COc1cc(C)c(C2NC(=O)c3ccccc3N2)cc1C` (stereo not given): the GI50 with MDA-MB-435 was 0.0294 µM (active); in the assay on HOP-62, 1.36 µM (inactive); with A498 it was 0.312 µM (active); with SR it was 0.0364 µM (active); with BT-549, 0.476 µM (active); with KM12 it was 0.15 µM (active). The GI50 in the assay on RXF 393 is 0.358 µM (active); with NCI-H23 it was 2.51 µM (inactive); with Malme-3M, 0.183 µM (active); with SK-OV-3 it was 0.378 µM (active); in the assay on NCI-H460, 0.342 µM (active); with A549, 0.596 µM (active). In addition, the GI50 in the assay on ACHN was 0.47 µM (active); in the assay with HCT-15 it was 0.217 µM; in the assay on OVCAR-5, 0.75 µM (active); in the assay with LOX IMVI, 0.451 µM (active); in the assay with UACC-62, 0.201 µM (active); in the assay with SNB-75 it was 0.0543 µM (active). Besides, the GI50 was 0.47 µM (active) in the assay with UACC-257 and 2.28 µM (inactive) in the assay on TK-10.
Regarding `CC(C)(C)OCC1NC(=O)[C@@H]2Cc3c([nH]c4ccccc34)C(c3ccccc3)N2C1=O` (stereo not given in full), the GI50 in the assay with MDA-MB-435 was > 50 µM (inactive); in the assay with HOP-62 it was > 50 µM (inactive); in the assay with A498 it was > 50 µM (inactive); in the assay with SR, > 22.4 µM (inactive); in the assay with BT-549, > 50 µM (inactive); with KM12 it was > 50 µM (inactive). The GI50 in the assay on RXF 393, in the assay on NCI-H23, in the assay on Malme-3M, with SK-OV-3, in the assay on NCI-H460 and in the assay on A549 was > 50 µM (inactive) throughout. Also, the GI50 was > 50 µM (inactive) in the assay on ACHN; greater than 50 µM in the assay with HCT-15; > 50 µM (inactive) in the assay on OVCAR-5; > 50 µM (inactive) in the assay on LOX IMVI; > 50 µM (inactive) in the assay on UACC-62; > 50 µM (inactive) in the assay with SNB-75. In addition, the GI50 with UACC-257 and in the assay on TK-10 was > 50 µM (inactive) each time.
On to `Cc1cn2cc(-c3cccs3)nc2s1`, for which the GI50 in the assay on MDA-MB-435 is > 100 µM (inactive); with HOP-62 it was > 100 µM (inactive); in the assay with A498, 27.2 µM (inactive); in the assay on SR, > 67.6 µM (inactive); with BT-549, > 100 µM (inactive); in the assay with KM12, 43.9 µM (inactive). Further, the GI50 with RXF 393 was > 100 µM (inactive); in the assay on NCI-H23 it was > 75.5 µM (inactive); with Malme-3M it was > 100 µM (inactive); with SK-OV-3, > 100 µM (inactive); in the assay with NCI-H460, > 100 µM (inactive); in the assay with A549, > 72.1 µM (inactive). Moreover, the GI50 with ACHN was > 88.5 µM (inactive); with HCT-15, greater than 71.9 µM; in the assay on OVCAR-5, > 100 µM (inactive); in the assay on LOX IMVI it was > 45.9 µM (inactive); in the assay with UACC-62 it was > 100 µM (inactive); in the assay on SNB-75, > 100 µM (inactive). Also, the values for the GI50 with UACC-257 and in the assay on TK-10 were > 85.9 µM (inactive) and > 73.3 µM (inactive), respectively.
